Results: patent US7166456B2, “Microorganism for producing riboflavin and method for producing riboflavin using the same” (CJ Corp., priority 2002, dated 2007)

Columns and labels:
Bacillus subtilis AS5 = experiment: Evaluation of resistance against thiaproline (growth on thiaproline-containing minimal medium); format: cell-based; design: key to growth of strain: +: growth; −: not growth; conditions: 37° C., 5 days
Experimental: (§1) The Bacillus subtilis AS5 as the parent strain was obtained from BIONOM-S, Ltd. (Obolensk, Moscow, Russia). The Bacillus subtilis AS5 was suspended in phosphate buffer at pH 7.0 or citrate buffer at pH 5.5 to have a cell density of 10^7 to 10^8 cells/ml. A mutation-inducing agent, N-methyl-N′-nitro-N-nitrosoguanidine was added to the suspension until its concentration was 10 to 50 μg/ml. The resultant mixture was incubated at room temperature or 30° C. for 30 to 60 minutes to induce mutation. Then, the mixture was washed three times with 0.85% of saline solution and diluted in an appropriate manner. The diluted solution was plated onto 1.8% agar-containing minimal media with various concentrations of thiaproline and cultured at 37° C. for 5 days to obtain colonies. In this case, the concentration of thiaproline ranged from 0 mg/l to 100 mg/l. The formed colonies were inoculated onto nutrient agar media and cultured at 37° C. for 24 hours. Then, the resultant nutrient cultures were inoculated onto fermentation media and cultured at 37° C. for 4 to 5 days. The highest riboflavin-producing strain was selected.
In this example, in order to evaluate resistance to thiaproline, the Bacillus subtilis CJKB0001 (KCCM-10445) of Example 1 and the Bacillus subtilis AS5 as the parent strain were cultured in various concentrations of thiaproline-containing media. In detail, respective strains were inoculated onto thiaproline-containing media as shown in Table 1 and cultured at 37° C. for 5 days. In this case, the concentration of thiaproline ranged from 0 to 100 mg/l.

[1] = test system: Bacillus subtilis CJKB0001 (KCCM-10445); experiment: as above; format: cell-based; design: key: +: growth; −: not growth; conditions: 37° C., 5 days
Experimental: as §1
In this example, in order to evaluate resistance to thiaproline, the Bacillus subtilis CJKB0001 (KCCM-10445) of Example 1 and the Bacillus subtilis AS5 as the parent strain were cultured in various concentrations of thiaproline-containing media. […]

Compound: O=C(O)[C@@H]1CSCN1 [thiaproline]
- growth of strain (Bacillus subtilis AS5; 40 mg/l thiaproline): +
- growth of strain (Bacillus subtilis AS5; 50 mg/l thiaproline): −
- growth of strain (Bacillus subtilis AS5; 70 mg/l thiaproline): −
- growth of strain (Bacillus subtilis AS5; 100 mg/l thiaproline): −
- thiaproline concentration at which the strain cannot grow (Bacillus subtilis AS5; thiaproline-containing medium): more than 40 mg/l
- growth of strain ([1]; 70 mg/l thiaproline): +
- growth of strain ([1]; 100 mg/l thiaproline): −
